Columns and labels:
[1] = system: T lymphocyte cell line Jurkat E6-1; test: Cytotoxicity (CCK-8 viability); type: cell-based; settings: 20 h culture
Experimental: The cytotoxicities of the compounds of Examples 1-19 and Comparative Examples 1-3 to T lymphocyte cell line Jurkat E6-1 provided from the Korea Cell Line Bank were measured using a cell counting kit (CCK-8, Dojindo). After the cell line was allowed to grow in RPMI1640 medium supplemented with 10% FBS, 100 U/mL penicillin, and 100 μg/mL streptomycin, cells were plated in each well of a 96-well plate at a density of 2λ10^4 cells/well and treated with each of the compounds of Examples 1-19 and Comparative Examples 1-3. After culture in a 5% CO2 incubator at 37° C. for 20 h, CCK-8 solution was added to a concentration of 10%, followed by reculture in a 5% CO2 incubator at 37° C. for one and a half hours. The absorbance was measured at 450 nm (Reference: 650 nm) and was expressed in percent relative to the value […] from non-treated cells (viability 100%).
In Table 1, the number 100 corresponds to a viability of 100%.

[2] = system: BALB/c mice with psoriasis induced by Aldara cream (imiquimod); test: Imiquimod-induced psoriasis model; type: in vivo; settings: for psoriatic skin lesions (photographs, FIG. 49): 40 mg/kg intraperitoneal in 50 μL DMSO; for number of CD4 T cells in spleen (flow cytometry) / number of CD8 T cells in spleen (flow cytometry) / inflammatory cell infiltration (H&E staining of skin) / erythema / skin scaling / skin thickness: 40 mg/kg intraperitoneal; for number of CD4 T cells in spleen (flow cytometry) / number of CD8 T cells in spleen (flow cytometry): splenic T cells; for inflammatory cell infiltration (H&E staining of skin): versus negative control and DMSO group; for erythema / skin scaling / skin thickness: visual observation, P<0.05
Experimental: A test was conducted to evaluate the alleviation of psoriatic skin lesions using psoriasis animals. To this end, first, BALB/c mice (7 weeks old/20 g/female) purchased from Hana Biotech Co., Ltd., Korea were acclimated to the vivarium for a period of one week. After that, the hair on the back of the mice was shaved and completely removed with a depilatory cream (Niclean cream (thioglycolic acid […], Ildong Pharmaceutical Co., Ltd., Korea)). The animals were bred for 24 h. 80 mg of Aldara® cream (imiquimod 4 mg) was applied daily for 1 week (7 days, 7 times in total) to induce psoriasis, as shown in FIG. 49. Thereafter, 80 mg of Aldara® cream (imiquimod 4 mg) was continuously applied to each group for 10 days. During the administration, an observation was made as to whether psoriasis was alleviated. As a result, skin lesions were alleviated in the group administered the inventive compound than in the negative control or the DMSO-administered group, as shown in FIG. 49.
After the skin tissues of the test subjects were subjected to H&E staining according to the above schedule, the degrees of inflammatory cell infiltration were observed.
FIGS. 56 and 57 show the results of flow cytometry for the groups administered the compounds of Examples 14 and 17. The in vivo effects of the compounds of Examples 14 and 17 on T cells in the test subjects were investigated. To this end, the spleens were harvested from the mice administered each compound and T cells were extracted from the harvested spleens.

SMILES | viability relative to non-treated cells, 10 μM (%) [1] | viability relative to non-treated cells, 20 μM (%) [1] | viability relative to non-treated cells, 30 μM (%) [1] | psoriatic skin lesions (photographs, FIG. 49) [2] | number of CD4 T cells in spleen (flow cytometry) [2] | number of CD8 T cells in spleen (flow cytometry) [2] | inflammatory cell infiltration (H&E staining of skin) [2] | erythema [2] | skin scaling [2] | skin thickness [2]
CCCCCCNC(=O)c1ccccc1OC [Example 4] | 96% | 92% | 88% |  |  |  |  |  |  | 
CCCCC(CC)CNC(=O)c1ccccc1Br (centres unmarked) [Example 9] | 95.3% | 95.1% | 92.0% |  |  |  |  |  |  | 
C=CCCCCCCCCCNC(=O)c1ccccc1F [Example 15] | 88.8% | 91.2% | 93.5% |  |  |  |  |  |  | 
CC(C)=CCC/C(C)=C/CNC(=O)c1ccccc1F [Example 16] | 89.3% | 85.7% | 76.3% |  |  |  |  |  |  | 
CC(C)=CCC/C(C)=C/CNC(=O)c1ccccc1Br [Example 14] | 96.9% | 96.6% | 95.4% | alleviated | decreases | decreases | less inflammatory cell infiltration | significant decreases | significant decreases | significant decreases
C=CCCCCCCCCCNC(=O)c1ccccc1Br [Example 13] | 98.8% | 97.9% | 90.3% |  |  |  |  |  |  | 
CCCCCCCCCCNC(=O)c1ccccc1Br [Example 12] | 91% | 85.3% | 78.5% |  |  |  |  |  |  | 
CC(C)=CCC/C(C)=C/CC/C(C)=C/COC(=O)c1ccccc1Br [Example 17] | 73.6% | 72.1% | 72.7% | alleviated | decreases | decreases | less inflammatory cell infiltration | significant decreases | significant decreases | significant decreases
CCCCCCCCCCCCNC(=O)c1ccccc1O [Example 7] | 82% | 79.3% | 66% |  |  |  |  |  |  | 
CCCCC(CC)CNC(=O)c1ccccc1F (centres unmarked) [Example 8] | 94.7% | 92.2% | 90.9% |  |  |  |  |  |  | 

— patent US20240307340A1, “IMMUNOSUPPRESSIVE PHARMACEUTICAL COMPOSITION INCLUDING BENZENE DERIVATIVE AS IMMUNOSUPPRESSANT” (INJE UNIVERSITY INDUSTRY-ACADEMIC COOPERATION FOUNDATION, priority 2021, published 2024)
